In the supplement of paper PMC12137928:
Where a name gives a salt, the structure may show the parent alone.

System: HCT116
Details: 72 h
Method in brief: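 In 1536-well plates, 250 HCT116 cells per well were seeded and left for 5 h to attach. Luminescence from CellTiter-Glo was set against vehicle (0%) and positive control (-100%), and pattern correction was applied. IC50 and maximal efficacy come from four-parameter Hill fitting.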

SMILES: CC1=C(CC(=O)O)c2cc(F)ccc2/C1=C\c1ccc([S+](C)[O-])cc1 (centres undefined) [Sulindac]
- IC50 cell viability (ICRF193 0 nM): > 45.8 µM
- IC50 cell viability (ICRF193 200 nM): > 45.8 µM

SMILES: COc1cc(O)c(C(=O)c2ccccc2)cc1S(=O)(=O)O [Sulisobenzone]
- IC50 cell viability (ICRF193 0 nM): > 45.8 µM
- IC50 cell viability (ICRF193 200 nM): > 45.8 µM

SMILES: CC1(C)S[C@@H]2[C@H](NC(=O)[C@H](N)c3ccccc3)C(=O)N2[C@H]1C(=O)OCOC(=O)[C@@H]1N2C(=O)C[C@H]2S(=O)(=O)C1(C)C [Sultamicillin tosylate]
- IC50 cell viability (ICRF193 0 nM): > 45.8 µM
- IC50 cell viability (ICRF193 200 nM): > 45.8 µM

SMILES: NS(=O)(=O)c1ccc(N2CCCCS2(=O)=O)cc1 [Sulthiame]
- IC50 cell viability (ICRF193 0 nM): > 45.8 µM
- IC50 cell viability (ICRF193 200 nM): > 45.8 µM

SMILES: CCN1CCCC1CNC(=O)c1cc(S(=O)(=O)CC)ccc1OC (centres undefined) [Sultopride hydrochloride]
- IC50 cell viability (ICRF193 0 nM): > 45.8 µM
- IC50 cell viability (ICRF193 200 nM): > 45.8 µM

SMILES: CNS(=O)(=O)Cc1ccc2[nH]cc(CCN(C)C)c2c1 [Sumatriptan]
- IC50 cell viability (ICRF193 0 nM): > 45.8 µM
- IC50 cell viability (ICRF193 200 nM): > 45.8 µM

SMILES: CCOCC(O)COc1ccc(NC(=O)CC[S+](C)C)cc1 (centres undefined) [Suplatast tosylate]
- IC50 cell viability (ICRF193 0 nM): > 45.8 µM
- IC50 cell viability (ICRF193 200 nM): > 45.8 µM

SMILES: CC(C(=O)O)c1ccc(C(=O)c2cccs2)cc1 (centres undefined) [Suprofen]
- IC50 cell viability (ICRF193 0 nM): > 45.8 µM
- IC50 cell viability (ICRF193 200 nM): > 45.8 µM

SMILES: O=c1n(Cl)c(=O)n(Cl)c(=O)n1Cl [Symclosene]
- IC50 cell viability (ICRF193 0 nM): > 45.8 µM
- IC50 cell viability (ICRF193 200 nM): > 45.8 µM

SMILES: CNCc1cc(-c2ccccc2F)n(S(=O)(=O)c2cccnc2)c1 [TAK 438]
- IC50 cell viability (ICRF193 0 nM): > 45.8 µM
- IC50 cell viability (ICRF193 200 nM): > 45.8 µM

SMILES: CC[C@H]1OC(=O)[C@H](C)C(=O)[C@H](C)[C@@H](O[C@@H]2O[C@H](C)C[C@H](N(C)C)[C@H]2O)[C@](C)(OC)C[C@@H](C)C(=O)[C@H](C)[C@H]2N(CCCCn3cnc(-c4cccnc4)c3)C(=O)O[C@]12C [TELITHROMYCIN]
- IC50 cell viability (ICRF193 0 nM): > 45.8 µM
- IC50 cell viability (ICRF193 200 nM): > 45.8 µM

SMILES: CC[C@H]1OC(=O)C[C@@H](O)[C@H](C)[C@@H](O[C@@H]2O[C@H](C)[C@@H](O)[C@H](N(C)C)[C@H]2O)[C@@H](CCN2C[C@H](C)C[C@H](C)C2)C[C@@H](C)C(=O)/C=C/C(C)=C/[C@@H]1CO[C@@H]1O[C@H](C)[C@@H](O)[C@@H](OC)[C@H]1OC [TILMICOSIN]
- IC50 cell viability (ICRF193 0 nM): > 45.8 µM
- IC50 cell viability (ICRF193 200 nM): > 45.8 µM

SMILES: CCOC(=O)[C@H](CCc1ccccc1)N[C@@H](C)C(=O)N1[C@H](C(=O)O)C[C@H]2CCCC[C@@H]21 [TRANDOLAPRIL]
- IC50 cell viability (ICRF193 0 nM): > 45.8 µM
- IC50 cell viability (ICRF193 200 nM): > 45.8 µM

SMILES: NC[C@H]1CC[C@H](C(=O)O)CC1 [TRANEXAMIC ACID]
- IC50 cell viability (ICRF193 0 nM): > 45.8 µM
- IC50 cell viability (ICRF193 200 nM): > 45.8 µM

SMILES: Cc1cc(-c2ccc(/N=N/c3c(S(=O)(=O)O)cc4cc(S(=O)(=O)O)cc(N)c4c3O)c(C)c2)ccc1/N=N/c1c(S(=O)(=O)O)cc2cc(S(=O)(=O)O)cc(N)c2c1O [TRYPAN BLUE]
- IC50 cell viability (ICRF193 0 nM): > 45.8 µM
- IC50 cell viability (ICRF193 200 nM): > 45.8 µM

SMILES: CC[C@H]1OC(=O)C[C@@H](O)[C@H](C)[C@@H](O[C@@H]2O[C@H](C)[C@@H](O[C@H]3C[C@@](C)(O)[C@@H](O)[C@H](C)O3)[C@H](N(C)C)[C@H]2O)[C@@H](CC=O)C[C@@H](C)C(=O)/C=C/C(C)=C/[C@@H]1CO[C@@H]1O[C@H](C)[C@@H](O)[C@@H](OC)[C@H]1OC [TYLOSIN TARTRATE]
- IC50 cell viability (ICRF193 0 nM): > 45.8 µM
- IC50 cell viability (ICRF193 200 nM): > 45.8 µM

SMILES: Nc1c2c(nc3ccccc13)CCCC2 [Tacrine hydrochloride]
- IC50 cell viability (ICRF193 0 nM): > 45.8 µM
- IC50 cell viability (ICRF193 200 nM): > 45.8 µM

SMILES: CN1CC(=O)N2[C@H](c3ccc4c(c3)OCO4)c3[nH]c4ccccc4c3C[C@@H]2C1=O [Tadalafil]
- IC50 cell viability (ICRF193 0 nM): > 45.8 µM
- IC50 cell viability (ICRF193 200 nM): > 45.8 µM

SMILES: O=C(O)c1ccc2nc(-c3cc(Cl)cc(Cl)c3)oc2c1 [Tafamidis]
- IC50 cell viability (ICRF193 0 nM): > 45.8 µM
- IC50 cell viability (ICRF193 200 nM): > 45.8 µM

SMILES: C=Cc1c(C)c2cc3nc(c(CC(=O)N[C@@H](CC(=O)O)C(=O)O)c4[nH]c(cc5nc(cc1[nH]2)C(C)=C5CC)c(C)c4C(=O)O)[C@@H](CCC(=O)O)[C@@H]3C [Talaporfin sodium]
- IC50 cell viability (ICRF193 0 nM): > 45.8 µM
- IC50 cell viability (ICRF193 200 nM): > 45.8 µM

SMILES: C=CCC1(C(C)CC)C(=O)NC(=O)NC1=O (centres undefined) [Talbutal]
- IC50 cell viability (ICRF193 0 nM): > 45.8 µM
- IC50 cell viability (ICRF193 200 nM): > 45.8 µM

SMILES: C=CCN1CCc2nc(N)sc2CC1 [Talipexole]
- IC50 cell viability (ICRF193 0 nM): > 45.8 µM
- IC50 cell viability (ICRF193 200 nM): > 45.8 µM

SMILES: CN1C(=O)C[C@@H](C(=O)N[C@@H](Cc2c[nH]cn2)C(=O)N2CCC[C@H]2C(N)=O)NC1=O [Taltirelin]
- IC50 cell viability (ICRF193 0 nM): > 45.8 µM
- IC50 cell viability (ICRF193 200 nM): > 45.8 µM

SMILES: CCOc1ccccc1OCCN[C@H](C)Cc1ccc(OC)c(S(N)(=O)=O)c1 [Tamsulosin hydrochloride]
- IC50 cell viability (ICRF193 0 nM): > 45.8 µM
- IC50 cell viability (ICRF193 200 nM): > 45.8 µM

SMILES: O=C1[C@@H]2[C@H]3CC[C@H](C3)[C@@H]2C(=O)N1CCCCN1CCN(c2ncccn2)CC1 [Tandospirone]
- IC50 cell viability (ICRF193 0 nM): > 45.8 µM
- IC50 cell viability (ICRF193 200 nM): > 45.8 µM

SMILES: CCC(=O)NC[C@@H]1C[C@H]1c1cccc2c1CCO2 [Tasimelteon]
- IC50 cell viability (ICRF193 0 nM): > 45.8 µM
- IC50 cell viability (ICRF193 200 nM): > 45.8 µM

SMILES: NCCS(=O)(=O)O [Taurine]
- IC50 cell viability (ICRF193 0 nM): > 45.8 µM
- IC50 cell viability (ICRF193 200 nM): > 45.8 µM

SMILES: CCCCOC(=O)C(=O)Nc1cccc(-c2nnn[nH]2)c1 [Tazanolast]
- IC50 cell viability (ICRF193 0 nM): > 45.8 µM
- IC50 cell viability (ICRF193 200 nM): > 45.8 µM

SMILES: CCOC(=O)c1ccc(C#Cc2ccc3c(c2)C(C)(C)CCS3)nc1 [Tazarotene]
- IC50 cell viability (ICRF193 0 nM): > 45.8 µM
- IC50 cell viability (ICRF193 200 nM): > 45.8 µM

SMILES: C[C@]1(Cn2ccnn2)[C@H](C(=O)O)N2C(=O)C[C@H]2S1(=O)=O [Tazobactam sodium]
- IC50 cell viability (ICRF193 0 nM): > 45.8 µM
- IC50 cell viability (ICRF193 200 nM): > 45.8 µM

SMILES: C[C@@H](O)[C@H]1C(=O)N2C(C(=O)OCOC(=O)C(C)(C)C)=C(SC3CN(C4=NCCS4)C3)[C@H](C)[C@H]12 [Tebipenem pivoxil]
- IC50 cell viability (ICRF193 0 nM): > 45.8 µM
- IC50 cell viability (ICRF193 200 nM): > 45.8 µM

SMILES: O=c1[nH]c(=O)n(C2CCCO2)cc1F (centres undefined) [Tegafur]
- IC50 cell viability (ICRF193 0 nM): > 45.8 µM
- IC50 cell viability (ICRF193 200 nM): > 45.8 µM

SMILES: Cc1cn([C@@H]2C[C@@H](O)[C@H](CO)O2)c(=O)[nH]c1=O [Telbivudine]
- IC50 cell viability (ICRF193 0 nM): > 45.8 µM
- IC50 cell viability (ICRF193 200 nM): > 45.8 µM

SMILES: CCCc1nc2c(C)cc(-c3nc4ccccc4n3C)cc2n1Cc1ccc(-c2ccccc2C(=O)O)cc1 [Telmisartan]
- IC50 cell viability (ICRF193 0 nM): > 45.8 µM
- IC50 cell viability (ICRF193 200 nM): > 45.8 µM

SMILES: CCOC(=O)[C@H](CCc1ccccc1)N[C@H]1CS[C@H](c2cccs2)CN(CC(=O)O)C1=O [Temocapril hydrochloride]
- IC50 cell viability (ICRF193 0 nM): > 45.8 µM
- IC50 cell viability (ICRF193 200 nM): > 45.8 µM

SMILES: Cn1nnc2c(C(N)=O)ncn2c1=O [Temozolomide]
- IC50 cell viability (ICRF193 0 nM): > 45.8 µM
- IC50 cell viability (ICRF193 200 nM): > 45.8 µM

SMILES: COc1ccc2[nH]c([S+]([O-])Cc3ncc(C)c(OC)c3C)nc2n1 (centres undefined) [Tenatoprazole]
- IC50 cell viability (ICRF193 0 nM): > 45.8 µM
- IC50 cell viability (ICRF193 200 nM): > 45.8 µM

SMILES: Cc1cc(N2CCN([C@@H]3CN[C@H](C(=O)N4CCSC4)C3)CC2)n(-c2ccccc2)n1 [Teneligliptin]
- IC50 cell viability (ICRF193 0 nM): > 45.8 µM
- IC50 cell viability (ICRF193 200 nM): > 45.8 µM

SMILES: CC(C)OC(=O)OCOP(=O)(CO[C@H](C)Cn1cnc2c(N)ncnc21)OCOC(=O)OC(C)C [Tenofovir disoproxil fumarate]
- IC50 cell viability (ICRF193 0 nM): > 45.8 µM
- IC50 cell viability (ICRF193 200 nM): > 45.8 µM

SMILES: CN1C(C(=O)Nc2ccccn2)=C(O)c2sccc2S1(=O)=O [Tenoxicam]
- IC50 cell viability (ICRF193 0 nM): > 45.8 µM
- IC50 cell viability (ICRF193 200 nM): > 45.8 µM

SMILES: CC(=O)CC/C=C(\C)CC/C=C(\C)CC/C=C(\C)CCC=C(C)C [Teprenone]
- IC50 cell viability (ICRF193 0 nM): > 45.8 µM
- IC50 cell viability (ICRF193 200 nM): > 45.8 µM

SMILES: COc1cc2nc(N3CCN(C(=O)C4CCCO4)CC3)nc(N)c2cc1OC (centres undefined) [Terazosin hydrochloride]
- IC50 cell viability (ICRF193 0 nM): > 45.8 µM
- IC50 cell viability (ICRF193 200 nM): > 45.8 µM
